# From US20100249193A1, “Nematicidal, Insecticidal and Acaricidal Active Ingredient Combinations Comprising Pyridyl-ethylbenzamides and Insecticides” (Bayer CropScience AG, priority 2009, published 2010)
# Test system: Meloidogyne incognita
# Test: Meloidogyne incognita test (MELGIN), gall formation on salad seedlings in sand
# Assay type: in vivo
# Conditions: 0% = galls equal to untreated control
# Experimental: Meloidogyne incognita—Test (MELGIN)
# To produce a suitable preparation of active compound, 1 part by weight of active compound is mixed with the stated amount of solvent, and the concentrate is diluted with emulsifier-containing water to the desired concentration.
# Vessels are filled with sand, a solution of the active ingredient, a suspension containing eggs and larvae of Meloidogyne incognita and salad seeds. The salad seeds germinate and the seedlings grow. Galls develop on the roots.
# After the specified period the nematicidal activity is determined on the basis of the percentage of gall formation. 100% means that no galls were found; 0% means that the number of galls found on the roots of the treated plants was equal to that in untreated control plants.
Structure (SMILES),Gall-formation efficacy in % after 21 d (100% = no galls) (4 ppm) [%],Gall-formation efficacy in % after 21 d (100% = no galls) (0.125 ppm) [%]
"CNC(=O)c1cc(C#N)cc(C)c1NC(=O)c1cc(Br)nn1-c1ncccc1Cl [Cyazypyr, cyazypyr]",6,
"O=C(NCCc1ncc(C(F)(F)F)cc1Cl)c1ccccc1C(F)(F)F [Fluopyram, N-{2-[3-chloro-5-(trifluoromethyl)-2-pyridinyl]ethyl}-2-trifluoromethylbenzamide]",,56
